Results reported in patent publication US4481141A, “Nondiffusible yellow metallized azo dye-releasing compounds” (Eastman Kodak Company, priority 1983, dated 1984).
“Also recorded” adds a separate entry of the source.

Experiments:
Assay type in all cases: physicochemical
[1] = Dye solution spectra of Ni-dye complexes (Table I); details: 3:1 dioxane:water, pH 7, excess nickel ion
Text: (§1) The receiver was removed from the dye solution, washed in distilled water, placed in a pH 7.0 buffer solution and dried. Transmission spectra obtained on each sample of the mordanted dyes were normalized by computer to a density of 1.0. The characteristic wavelength of the dye, λ1/2 in nm, is the mean of the wavelength limits of the absorption envelope at half the maximum density. The HBW ("half band width") in nm is the range or distance between those limits. The dye solution spectrum in 3:1 dioxane:water at pH 7 in the presence of excess nickel ion is also given.

[2] = Transmission spectra of mordanted dyes on receiving element (Table I); details: unmetallized dye; nickel sulfate layer/poly(4-vinylpyridine) mordant receiver; pH 7.0
Method: (§2) A receiving element was prepared comprising a poly(ethylene terephthalate) film support having thereon a nickel sulfate hexahydrate (0.58 g/m^2)/gelatin (1.08 g/m^2) metal complexing layer, and a poly(4-vinylpyridine)/gelatin mordant layer (each at 2.15 g/m^2), which forms metal complexes with the unmetallized dyes. […]
as §1

[3] = Light stability of mordanted dyes (HID fade, Table I); details: unmetallized dye; nickel layer/poly(4-vinylpyridine) receiver; 10 days HID, 50,000 lux, 38° C., pH 7
Method: as §2
The above receiving elements at pH 7 were then subjected to 10 days irradiation by a high intensity daylight (HID), 6000 W Xenon arc lamp, the sample receiving 50,000 lux through a Wratten 2B (ultraviolet) filter at approximately 38° C. and low humidity. The percent fade represents the loss in density at λmax after irradiation.

[4] = Dye diffusion, solution test; details: 0.0025M dye, pH 13.4
Text: (§3) The released dyes in Table I were also subjected to the conditions of two different dye diffusion tests. One, the "solution test" involved dissolving the dye in a viscous composition and transferring it through a receiving element which contains an opaque and reflecting layer in addition to the mordant layer. The other, a "gel pad test" involved imbibing the dye from solution into a thick gelatin layer, and then transferring it by direct lamination to the same receiving element which had been preswollen by soaking 5 minutes in a solution of 0.1 potassium hydroxide. The receiver for these tests had the following composition (coverages are parenthetically given in g/m^2):
(§4) A transparent poly(ethylene terephthalate) film support coated with
(§5) (1) a mordant layer of poly(styrene-co-N-vinylbenzyl-N-benzyl-N,N-dimethylammonium chloride-co-divinylbenzene) (2.28) and gelatin (2.28);
(§6) (2) an opaque and reflecting layer of carbon black (1.88) in gelatin (1.23) and titanium dioxide (16.1) in gelatin (2.63); and
(§7) (3) an overcoat layer of gelatin (4.3).
Approximately 0.075 mmol of the released dye was dissolved in 10 ml of 0.125N potassium hydroxide. After the dye was completely dissolved, 20 ml of a viscous composition was added; and the resulting solution, stirred for at least 20 minutes, was 0.0025M in dye at a pH of 13.4. The viscous composition was prepared from 46.2 g potassium hydroxide and 54 g carboxymethylcellulose dissolved in 1200 ml water. […] Measurement of the rate of dye diffusion was commenced at the point at which half of the laminate had passed through the rollers. The appearance of dye on the mordant was measured at λmax as diffuse reflection density vs. time. The reflection density was converted to transmission density by computer with the aid of a mathematical relation derived from a previous calibration. A plot of transmission density, which is proportional to concentration vs. time, was derived; and the value of t-1/2 of dye transfer, the time in seconds required to obtain one-half of the maximum transmission density, calculated.

[5] = Dye diffusion, gel pad test
Text: as §3, §4, §5, §6, §7
A donor element, containing a thick pad of deionized acid-processed gelatin (26 g/m^2) hardened with 2 percent bis(vinylsulfonylmethyl)ether, was imbibed with a solution of 0.1M in potassium hydroxide and 1.3×10^-3 M in dye. […]

[6] = Stability of dye:nickel complex under gel pad transfer conditions; details: after gel pad diffusion test
Method: A donor element, containing a thick pad of deionized acid-processed gelatin (26 g/m^2) hardened with 2 percent bis(vinylsulfonylmethyl)ether, was imbibed with a solution of 0.1M in potassium hydroxide and 1.3×10^-3 M in dye. The pad was soaked to full penetration, surface wiped, and then laminated in direct contact to the above receiving element which had been presoaked for 5 minutes at 0.1M KOH. The t-1/2 of dye transfer was obtained as in the solution test. The diffusion times by the "gel pad test" are substantially longer than by the "solution test".
When the unmetallized dye ligand of Compound J of the '643 patent and the 1:1 complex thereof were subjected to the gel pad diffusion test as described in Example 1, the values obtained were 66 sec. and 146 sec., respectively.

[7] = Comparison with prior art: absorption in dioxane/water with and without nickel ions
Method: In U.S. Pat. No. 4,148,643, Compound J in column 32 is the nickel complex of the following dye compound: [drawing 20] The nickel-dye complex is listed as having a λmax of 462 nm and a half-band width of 76 nm when adsorbed to a cationic polymeric mordant on a film strip. A 1:1 dioxane/water mixture at a pH of 7.0 of this nickel-dye complex was prepared. It absorbed at 444 nm in the presence of excess nickel ions and 402 nm in the absence of nickel ions.
In Table I, Compound C has the following structure: [drawing 21] The compound has a quinoline nitrogen chelating group instead of a hydroxyl chelating group as in Compound J of the '643 patent. A 1:1 dioxane/water mixture at a pH of 7.0 of the above Compound C was prepared. It absorbed at 452 nm in the presence of excess nickel ions and at 387 nm in the absence of nickel ions.

| Compound | Spectra of Ni-Dye Complexes, Dye Solution, HBW (half band width) [1] | Spectra of Ni-Dye Complexes, Dye Solution, λ1/2 [1] | Spectra of Ni-Dye Complexes, Mordant, HBW (half band width) [2] | Spectra of Ni-Dye Complexes, Mordant, λ1/2 [2] | % Fade (loss in density at λmax after irradiation) [3] | Dye Diffusion t1/2, Soln. [4] | Dye Diffusion t1/2, Gel Pad ([5]; gel pad test, 0.1M KOH, 1.3×10^-3 M dye) | gel pad diffusion test value ([5]; gel pad diffusion test as in Example 1 (comparison with prior art)) | absorption wavelength in the presence of excess nickel ions ([7]; 1:1 dioxane/water, pH 7.0, excess nickel ions) | absorption wavelength in the absence of nickel ions ([7]; 1:1 dioxane/water, pH 7.0, no nickel ions) | spectrum at reduced nickel ion concentration ([7]; nickel ion at one-half the molar concentration of the dye) | spectrum of the dye on the receiver after transfer [6] | nature/stability of dye:nickel complex from spectrum ([7]; 0.5 mol Ni^++, listed as Dye C) |
| --- | --- | --- | --- | --- | --- | --- | --- | --- | --- | --- | --- | --- | --- |
| Cc1nn(-c2ccccc2)c(O)c1N=Nc1cccc2cccnc12 [N] | 102 nm | 444 nm | 116 nm | 447 nm | 3.0% |  |  |  |  |  |  |  |  |
| NS(=O)(=O)c1ccc(N=Nc2c(O)n(-c3ccccc3)n(-c3ccccc3)c2=O)c2ncccc12 [M] | 72 nm | 450 nm | 77 nm | 459 nm | 1.0% |  |  |  |  |  |  |  |  |
| O=c1oc2ccccc2c(O)c1N=Nc1cccc2cccnc12 [O] | 98 nm | 429 nm | 85 nm | 452 nm | 0.0% |  |  |  |  |  |  |  |  |
| CC(O)=C(C#N)N=Nc1cccc2cccnc12 [A] | 68 nm | 431 nm |  |  |  |  |  |  |  |  |  |  |  |
| CC(O)=C(C#N)N=Nc1ccc(S(=O)(=O)Nc2cccc(O)c2)c2cccnc12 [D] | 70 nm | 451 nm | 73 nm | 459 nm | 8.0% | 39 s |  |  |  |  |  |  |  |
| CC(O)=C(C#N)N=Nc1cc(S(N)(=O)=O)ccc1O [reference compound] |  |  |  |  |  |  |  | 66 s |  |  |  | showed the presence of the unmetallized dye only |  |
| O=c1c(N=Nc2cccc3cccnc23)c(O)n(-c2ccccc2)n1-c1ccccc1 [L] | 72 nm | 435 nm | 77 nm | 439 nm | 1.0% |  |  |  |  |  |  |  |  |
| CC(C)(C)C(O)=C(C#N)N=Nc1ccc(S(=O)(=O)Nc2cccc(S(N)(=O)=O)c2)c2cccnc12 [H] | 70 nm | 450 nm | 79 nm | 455 nm | 3.6% | 40 s |  |  |  |  |  |  |  |

Further lines, with some results ahead:

| Spectra of Ni-Dye Complexes, Dye Solution, HBW (half band width) [1] | Spectra of Ni-Dye Complexes, Dye Solution, λ1/2 [1] | Spectra of Ni-Dye Complexes, Mordant, HBW (half band width) [2] | Spectra of Ni-Dye Complexes, Mordant, λ1/2 [2] | % Fade (loss in density at λmax after irradiation) [3] | Dye Diffusion t1/2, Soln. [4] | Dye Diffusion t1/2, Gel Pad ([5]; gel pad test, 0.1M KOH, 1.3×10^-3 M dye) | gel pad diffusion test value ([5]; gel pad diffusion test as in Example 1 (comparison with prior art)) | absorption wavelength in the presence of excess nickel ions ([7]; 1:1 dioxane/water, pH 7.0, excess nickel ions) | absorption wavelength in the absence of nickel ions ([7]; 1:1 dioxane/water, pH 7.0, no nickel ions) | spectrum at reduced nickel ion concentration ([7]; nickel ion at one-half the molar concentration of the dye) | Compound | spectrum of the dye on the receiver after transfer [6] | nature/stability of dye:nickel complex from spectrum ([7]; 0.5 mol Ni^++, listed as Dye C) |
| --- | --- | --- | --- | --- | --- | --- | --- | --- | --- | --- | --- | --- | --- |
| 70 nm | 446 nm | 75 nm | 458 nm | 2.0% |  |  |  |  |  |  | N#CC(N=Nc1cccc2cccnc12)=C(O)c1ccccc1 [F] |  |  |
| 67 nm | 445 nm | 70 nm | 456 nm | 1.5% | 27 s |  |  |  |  |  | CC(O)=C(C#N)N=Nc1ccc(S(N)(=O)=O)c2cccnc12 [B] |  |  |
| 70 nm | 460 nm | 75 nm | 470 nm | 1.0% | 27 s |  |  |  |  |  | N#CC(N=Nc1ccc(S(N)(=O)=O)c2cccnc12)=C(O)c1ccccc1 [G] |  |  |
| 72 nm | 445 nm | 69 nm | 456 nm | 2.0% | 29 s |  |  |  |  |  | CC(C)(C)C(O)=C(C#N)N=Nc1ccc(S(N)(=O)=O)c2cccnc12 [E] |  |  |
| 68 nm | 451 nm | 77 nm | 455 nm | 7.2% | 34 s | 127 s |  |  |  |  | CC(O)=C(C#N)N=Nc1ccc(S(=O)(=O)Nc2cccc(C(=O)O)c2)c2cccnc12 [I] |  |  |
| 70 nm | 448 nm | 74 nm | 457 nm | 1.0% | 37 s |  |  | 452 nm | 387 nm | no change in the spectrum | CC(O)=C(C#N)N=Nc1ccc(S(=O)(=O)Nc2cccc(S(N)(=O)=O)c2)c2cccnc12 [Compound C] |  | stable 2:1 complex of dye to metal; also recorded: much more stable 2:1 dye:nickel complex than compound J of the '643 patent |
